Assay results as given in patent US9604975B2, “Indolyl-pyridone derivatives having checkpoint kinase 1 inhibitory activity” (Vernalis (R&D) Ltd., priority 2009, dated 2017).
pIC50: −log10 of the molar value.

The compounds below were run against T1, CHK1 (Homo sapiens, UniProt O14757) (assay: CHK1 Enzyme Assay (phosphorylation of Chktide peptide, 33P-ATP filter assay)). Settings: 12.5 nM His-CHK1, 0.01 mM ATP, 40 minutes at 30° C.; read-out: CHK1 Enzyme Activity (IC50 range).
T1 construct: His; purchased Invitrogen
T1 sequence (O14757 1-476): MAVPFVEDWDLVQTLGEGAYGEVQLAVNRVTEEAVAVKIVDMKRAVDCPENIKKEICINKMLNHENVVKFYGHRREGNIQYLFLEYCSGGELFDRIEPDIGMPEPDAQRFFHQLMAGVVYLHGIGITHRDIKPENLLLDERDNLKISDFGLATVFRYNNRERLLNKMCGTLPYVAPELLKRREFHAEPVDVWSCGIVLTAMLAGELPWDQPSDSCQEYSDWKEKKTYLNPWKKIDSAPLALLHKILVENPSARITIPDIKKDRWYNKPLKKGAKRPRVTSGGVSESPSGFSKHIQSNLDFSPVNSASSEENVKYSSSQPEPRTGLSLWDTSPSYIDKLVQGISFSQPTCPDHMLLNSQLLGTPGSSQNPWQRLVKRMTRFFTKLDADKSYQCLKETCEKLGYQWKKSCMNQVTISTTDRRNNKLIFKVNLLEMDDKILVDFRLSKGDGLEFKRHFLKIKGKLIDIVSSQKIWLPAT
Type: biochemical
Protocol: Assays for the CHK1 kinase activity were carried out by monitoring the phosphorylation of a synthetic peptide Chktide with the amino acid sequence, […]. The assay mixture containing the inhibitor and CHK1 enzyme was mixed together in a microtiter plate in a final volume of 50 μl and incubated for 40 minutes at 30° C.
The assay mixture contained 0.01 mM unlabeled ATP, 0.5 μCi ^33P-γ-ATP, 14.8 μM Chktide, 0.1 mg/mL BSA, 50 mM Hepes-NaOH pH 7.5 and 12.5 nM His-CHK1 (Invitrogen) enzyme. The reaction was stopped by adding 50 μL of 50 mM phosphoric acid. 90 μL of the mixture was transferred to a pre-wetted 96-well multi-screen MAPHNOB filtration plate (Millipore) and filtered on a vacuum manifold. The filter plate was washed with 3 successive additions of 200 μl 50 mM phosphoric acid and then with 100 μL methanol. The filtration plate was dried for 10 min at 65° C., scintillant added and phosphorylated peptide quantified in a scintillation counter (Trilux, PerkinElmer).

O=C(Nc1cnn(Cc2ccccc2)c1)c1c[nH]c(=O)c(-c2cc3cc(CN4CCNCC4)ccc3[nH]2)c1 [Example 16, 6-oxo-5-(5-piperazin-1-ylmethyl-1H-indol-2-yl)-1,6-dihydro-pyridine-3-carboxylic acid (1-benzyl-1H-pyrazol-4-yl)-amide] and O=C(Nc1c[nH]c(=O)c(-c2cc3cc(CN4CCN(CCO)CC4)ccc3[nH]2)c1)c1cnn(Cc2ccccc2)c1 [Example 65, 1-Benzyl-1H-pyrazole-4-carboxylic acid (5-{5-[4-(2-hydroxy-ethyl)-piperazin-1-ylmethyl]-1H-indol-2-yl}-6-oxo-1,6-dihydro-pyridin-3-yl)-amide] cannot be ordered by pIC50: > 7.00 for the first, > 7.00 for the second.

Cc1ccc(Cn2cc(C(=O)Nc3c[nH]c(=O)c(-c4cc5cc(OCCN6CCCC(F)C6)ccc5[nH]4)c3)cn2)cc1 (stereo not shown) [Example 116, 1-(4-Methyl-benzyl)-1H-pyrazole-4-carboxylic acid (5-{5-[2-(3-fluoro-piperidin-1-yl)-ethoxy]-1H-indol-2-yl}-6-oxo-1,6-dihydro-pyridin-3-yl)-amide] and Cc1ccc(Cn2cc(C(=O)Nc3c[nH]c(=O)c(-c4cc5cc(OCCN6CC(C)OC(C)C6)ccc5[nH]4)c3)cn2)cc1 (stereo not shown) [Example 131, 1-(4-Methyl-benzyl)-1H-pyrazole-4-carboxylic acid (5-{5-[2-(2,6-dimethyl-morpholin-4-yl)-ethoxy]-1H-indol-2-yl}-6-oxo-1,6-dihydro-pyridin-3-yl)-amide] cannot be ordered by pIC50: > 7.00 for the first, > 7.00 for the second.

CC(c1ccc(F)cc1)n1cc(C(=O)Nc2c[nH]c(=O)c(-c3cc4cc(CN5CCN(C)CC5)ccc4[nH]3)c2)cn1 (stereo not shown) [Example 89, 1-[1-(4-Fluoro-phenyl)-ethyl]-1H-pyrazole-4-carboxylic acid {5-[5-(4-methylpiperazin-1-ylmethyl)-1H-indol-2-yl]-6-oxo-1,6-dihydro-pyridin-3-yl}-amide] and CC(c1ccc(F)cc1)n1cc(C(=O)Nc2c[nH]c(=O)c(-c3cc4cc(CN5CCC(F)CC5)ccc4[nH]3)c2)cn1 (stereo not shown) [Example 90, 1-[1-(Fluoro-phenyl)-ethyl]-1H-pyrrazole-4-carboxylic acid {5-[5-(4-fluoro-piperidin-1ylmethyl)-1H-indol-2-yl]-6-oxo-1,6-dihydro-pyridin-3-yl}-amide] cannot be ordered by pIC50: > 7.00 for the first, > 7.00 for the second.

First: Cc1[nH]c(=O)c(-c2cc3ccccc3[nH]2)cc1NC(=O)c1cnn(Cc2ccccc2)c1 [Example 31, 1-Benzyl-1H-pyrazole-4-carboxylic acid [5-(1H-indol-2-yl)-2-methyl-6-oxo-1,6-dihydro-pyridin-3-yl]-amide]
Second: Cc1[nH]c(=O)c(-c2cc3ccccc3[nH]2)cc1C(=O)Nc1cnn(Cc2ccccc2)c1 [Example 17, 5-(1H-Indol-2-yl)-2-methyl-6-oxo-1,6-dihydro-pyridine-3-carboxylic acid (1-benzyl-1H-pyrazol-4-yl)-amide]
The pIC50 of the first is higher: > 7.00 for the first, 5.82 to 6.30 for the second. The first is the more potent here.

Compared with Cc1ccc(Cn2cc(C(=O)Nc3c[nH]c(=O)c(-c4cc5cc(OCC(C)(C)CN(C)C)ccc5[nH]4)c3)cn2)cc1 [Example 137, 1-(4-Methyl-benzyl)-1H-pyrazole-4-carboxylic acid {5-[5-(3-dimethylamino-2,2-dimethyl-propoxy)-1H-indol-2-yl]-6-oxo-1,6-dihydro-pyridin-3-yl}-amide], CCN(CC)CCOc1ccc2[nH]c(-c3cc(NC(=O)c4cnn(Cc5ccc(C(C)(C)C)cc5)c4)c[nH]c3=O)cc2c1 [Example 154] is lower in pIC50: > 7.00 for the first, 5.82 to 6.30 for the second. The first is the more potent here.

Cc1ccc(Cn2cc(C(=O)Nc3c[nH]c(=O)c(-c4cc5cc(CN6CCOCC6)ccc5[nH]4)c3)cn2)cc1 [Example 40, 1-(4-Methyl-benzyl)-1H-pyrazole-4-carboxylic acid [5-(5-morpholin-4-ylmethyl-1H-indol-2-yl)-6-oxo-1,6-dihydro-pyridin-3-yl]-amide] and Cc1ccc(Cn2cc(C(=O)Nc3c[nH]c(=O)c(-c4cc5cc(CN6CC(O)C6)ccc5[nH]4)c3)cn2)cc1 [Example 42, 1-(4-Methyl-benzyl)-1H-pyrazole-4-carboxylic acid {5-[5-(3-hydroxy-azetidin-1-ylmethyl)-1H-indol-2-yl]-6-oxo-1,6-dihydro-pyridin-3-yl}-amide] cannot be ordered by pIC50: > 7.00 for the first, > 7.00 for the second.

O=C(Nc1c[nH]c(=O)c(-c2cc3ccccc3[nH]2)c1)c1cnn(Cc2cccc(Cl)c2)c1 [Example 27, 1-(3-Chloro-benzyl)-1H-pyrazole-4-carboxylic acid [5-(1H-indol-2-yl)-6-oxo-1,6-dihydro-pyridin-3-yl]-amide] and O=C(Nc1cnn(Cc2cccc(F)c2)c1)c1c[nH]c(=O)c(-c2cc3ccccc3[nH]2)c1 [Example 9, 5-(1H-Indol-2-yl)-6-oxo-1,6-dihydro-pyridine-3-carboxylic acid [1-(3-fluoro-benzyl)-1H-pyrazol-4-yl]-amide] cannot be ordered by pIC50: > 7.00 for the first, > 7.00 for the second.

CC1CN(CCOc2ccc3[nH]c(-c4cc(NC(=O)c5cnn(Cc6ccccc6)c5)c[nH]c4=O)cc3c2)CC(C)O1 (stereo not shown) [Example 147, 1-Benzyl-1H-pyrazole-4-carboxylic acid (5-{5-[2-(2,6-dimethyl-morpholin-4-yl)-ethoxy]-1H-indol-2-yl}-6oxo-1,6-dihydro-pyridin-3-yl)-amide] and CC1CN(Cc2ccc3[nH]c(-c4cc(NC(=O)c5cnn(Cc6ccccc6)c5)c[nH]c4=O)cc3c2)CC(C)O1 (stereo not shown) [Example 69, 1-Benzyl-1H-pyrazole-4-carboxylic acid {5-[5-(2,6-dimethyl-morpholin-4-ylmethyl)-1H-indol-2-yl]-6-oxo-1,6-dihydro-pyridin-3-yl}-amide] cannot be ordered by pIC50: > 7.00 for the first, > 7.00 for the second.

CCc1cccc(Cn2cc(C(=O)Nc3c[nH]c(=O)c(-c4cc5cc(OCCCN6CCN(C)CC6)ccc5[nH]4)c3)cn2)c1 [Example 127, 1-(3-Ethyl-benzyl)-1H-pyrazole-4-carboxylic acid (5-{5-[3-(4-methyl-piperazin-1-yl)-propoxy]-1H-indol-2-yl}-6-oxo-1,6-dihydro-pyridin-3-yl)-amide] and CN1CCN(Cc2ccc3[nH]c(-c4cc(NC(=O)c5cnn(Cc6ccc(Cl)cc6)c5)c[nH]c4=O)cc3c2)CC1 [Example 53, 1-(4-Chloro-benzyl)-1H-pyrazole-4-carboxylic acid {5-[5-(4-methyl-piperazin-1-ylmethyl)-1H-indol-2-yl]-6-oxo-1,6-dihydro-pyridin-3-yl}-amide] cannot be ordered by pIC50: > 7.00 for the first, > 7.00 for the second.

CCN(CC)CCCOc1ccc2[nH]c(-c3cc(NC(=O)c4cnn(Cc5ccccc5)c4)c[nH]c3=O)cc2c1 [Example 139, 1-Benzyl-1H-pyrazole-4-carboxylic acid {5-[5-(3-diethylamino-propoxy)-1H-indol-2-yl]-6-oxo-1,6-dihydro-pyridin-3-yl}-amide] and CC(C)(COc1ccc2[nH]c(-c3cc(NC(=O)c4cnn(Cc5ccccc5)c4)c[nH]c3=O)cc2c1)CN1CC[C@@H](F)C1 [Example 182, 1-Benzyl-1H-pyrazole-4-carboxylic acid (5-{5-[3-((R)-3-fluoro-pyrrolidin-1-yl)-2,2-dimethyl-propoxy]-1H-indol-2-yl}-6-oxo-1,6-dihydro-pyridin-3-yl)-amide] cannot be ordered by pIC50: > 7.00 for the first, > 7.00 for the second.

CC(C)c1ccc(Cn2cc(C(=O)Nc3c[nH]c(=O)c(-c4cc5cc(OCCN6CCCCC6)ccc5[nH]4)c3)cn2)cc1 [Example 152, 1-(4-Isopropylbenzyl)-1H-pyrazole-4-carboxylic acid {5-[5-(2-piperidin-1-ylethoxy)-1H-indol-2-yl)-6-oxo-1,6-dihydropyridin-3-yl}-amide] and C[C@H](c1ccccc1)n1cc(C(=O)Nc2c[nH]c(=O)c(-c3cc4cc(CN5CCC(F)CC5)ccc4[nH]3)c2)cn1 [Example 169, 1-((R)-1-Phenyl-ethyl)-1H-pyrazole-4-carboxylic acid {5-[5-(4-fluoro-piperidin-1-ylmethyl)-1H-indol-2-yl]-6-oxo-1,6-dihydro-pyridin-3-yl}-amide] cannot be ordered by pIC50: > 7.00 for the first, > 7.00 for the second.

First: Cc1[nH]c(=O)c(-c2cc3ccccc3[nH]2)cc1C(=O)Nc1cnn(Cc2ccc(F)c(F)c2)c1 [Example 19, 5-(1H-Indol-2-yl)-2-methyl-6-oxo-1,6-dihydro-pyridine-3-carboxylic acid [1-(3,4-difluoro-benzyl)-1H-pyrazol-4-yl]-amide]
Second: Cc1cccc(Cn2cc(NC(=O)c3c[nH]c(=O)c(-c4cc5ccccc5[nH]4)c3)cn2)c1 [Example 4, 5-(1H-Indol-2-yl)-6-oxo-1,6-dihydro-pyridine-3-carboxylic acid[1-(3-methyl-benzyl)-1H-pyrazol-4-yl]-amide]
The pIC50 of the first is lower: 6.30 to 7.00 for the first, > 7.00 for the second.

Compound N#Cc1cccc(Cn2cc(NC(=O)c3c[nH]c(=O)c(-c4cc5ccccc5[nH]4)c3)cn2)c1 [Example 6, 5-(1H-Indol-2-yl)-6-oxo-1,6-dihydro-pyridine-3-carboxylic acid [1-(3-cyano-benzyl)-1H-pyrazol-4-yl]-amide] has a pIC50 of 6.30 to 7.00.
